One may read the EC50 as the midpoint of the concentration-response curve.

Assay [1] concerns the target T1, human CB1 (Homo sapiens, UniProt P21554).
T1 construct: expressed in transfected cells
As to the kind of experiment: cAMP determination in functional hCB1-HEK stable cells (HTRF). The class given is cell-based. On the procedure:
In-Vitro Assay Method for Determination of cAMP in Functional hCB1—HEK Stable Cells:
U.S.A), 400 μg/ml of G418 and lx penstrep. For assay, 0.6-1.0×10^6 hCB1-HEK cells were seeded in T-25 flask and grown to mid-log phase in complete culture medium as mentioned above for 2-3 days. One day prior to assay, cell monolayer was washed once with PBS (pH.7.4) and then serum starved for overnight in DMEM medium containing 0.2% bovine serum albumin (devoid of antibiotics, FBS and penstrep). […] The test is performed in 96^1/2 area black well plates. For agonist testing, 20 μl cells/well were mixed with 20 μl of compound and 10 μl of forskolin (with final concentration of 10 μM) and incubated for 40 min at 25° C. incubator. The plates were then processed for cAMP determination using cAMP Femto-2 HTRF kit (Cisbio, Germany) as per the kit manual.

Assay [2] deals with hCB2 (Homo sapiens, UniProt P34972). Put plainly: cAMP determination in functional hCB2-CHO stable cells (HTRF). The assay is classed as cell-based. How it is done: In-Vitro Assay Method for Determination of cAMP in Functional hCB2—CHO Stable Cells:
Recombinant CHO-hCB2 cells (procured from Perkin Elmer Inc. USA) were propagated and maintained in Ham's F-12 complete medium containing 10% heat inactivated FBS (Sigma.UK) and 1× penstrep. For assay, 0.1×10^6 to 1.0×10^6 CHO-hCB2 cells were seeded in T-25 flask and grown to mid-log phase in culture media without antibiotics for 2-3 days. […] The test is performed in 96^1/2 area black well plates. For agonist testing, 20 μl cells/well were mixed with 20 μl of sample and 10 μl of forskolin (with final concentration of 10 μM) and incubated for 20 to 40 min at room temperature in incubator. The plate was then processed for the cAMP determination using cAMP Femto-2 HTRF kit (Cisbio, Germany) as per the manual.
The concentration of compound required to stimulate a half-maximal response (EC50) was determined using the GraphPad Prism software (version 5).

Assay [3] deals with rats. As to the kind of experiment: FCA (Freund's Complete Adjuvant)-induced inflammatory hyperalgesia, paw withdrawal threshold, Dynamic plantar aesthesiometer. The assay is classed as in vivo. As to conditions: mechanical hyperalgesia 3 days post-FCA. How it is done:
FCA (Freund's Complete Adjuvant)—Induced Inflammatory Hyperalgesia:
Freund's Complete Adjuvant (FCA), containing heat killed Mycobacterium tuberculosis (2 mg/ml) in incomplete Freund's adjuvant, injected (50 μl) into the plantar region of the paw of rats induces an inflammatory pain. Mechanical hyperalgesia (3 days post-FCA) was assessed by measuring hind paw withdrawal thresholds with Dynamic planter aesthesiometer.

In assay [4] the test system is rats. As to the kind of experiment: Chronic constriction injury (CCI)-induced neuropathic pain (Bennett's model), mechanical allodynia, von Frey filaments. The class given is in vivo. As to conditions: CCI of sciatic nerve, mechanical allodynia after 10-15 days, dose 10 mg/kg. On the procedure:
Chronic Constriction Injury (CCI)—Induced Neuropathic Pain (Bennett's Model):
Chronic constriction injury (CCI) of sciatic nerve in rats induces mechanical allodynia in this Bennet's neuropathic pain model. Rats were anesthetized using ketamine/xylazine (50/5 mg/kg, i.p.) and the left sciatic nerve was exposed at mid thigh level through a small incision. Four loose ligatures of 4-0 chromic cat gut (Ethicon—Johnson & Johnson) at 1 mm space were placed around the sciatic nerve after the bifurcation of common sciatic nerve. After 10-15 days, mechanical allodynia was assessed by measuring hind paw withdrawal thresholds with von Frey filaments. The 50% paw withdrawal threshold was determined using up and down method of Dixon and as per the Chaplan method.

The test system of assay [5] is rats. As to the kind of experiment: FCA-induced inflammatory allodynia, paw withdrawal threshold, von Frey filaments. The class given is in vivo. As to conditions: mechanical allodynia 7 days after FCA injection, dose 10 mg/kg. How it is done:
FCA (Freund's Complete Adjuvant)—Induced Inflammatory Allodynia:
An emulsion of Freund's Complete Adjuvant (FCA), containing heat killed Mycobacterium tuberculosis (4 mg/ml) in incomplete Freund's adjuvant and saline (1:1) at a final concentration of 2 mg/ml, when injected (150 μl) into the plantar region of the paw of rats induces an inflammatory pain. Mechanical allodynia (7 days after injection) was assessed by measuring hind paw withdrawal thresholds with von Frey filaments. The 50% paw withdrawal threshold was determined using up and down method of Dixon and as per the Chaplan method.

Setting [6] is: CHO-hCB2 cells, cAMP, forskolin 10 μM, agonist testing, read-out: EC50 Range.

Where two headings read alike, the source gives them in different places. A value given as a limit tells only on which side of the number the result lay.

T1 sequence (P21554 whole entry): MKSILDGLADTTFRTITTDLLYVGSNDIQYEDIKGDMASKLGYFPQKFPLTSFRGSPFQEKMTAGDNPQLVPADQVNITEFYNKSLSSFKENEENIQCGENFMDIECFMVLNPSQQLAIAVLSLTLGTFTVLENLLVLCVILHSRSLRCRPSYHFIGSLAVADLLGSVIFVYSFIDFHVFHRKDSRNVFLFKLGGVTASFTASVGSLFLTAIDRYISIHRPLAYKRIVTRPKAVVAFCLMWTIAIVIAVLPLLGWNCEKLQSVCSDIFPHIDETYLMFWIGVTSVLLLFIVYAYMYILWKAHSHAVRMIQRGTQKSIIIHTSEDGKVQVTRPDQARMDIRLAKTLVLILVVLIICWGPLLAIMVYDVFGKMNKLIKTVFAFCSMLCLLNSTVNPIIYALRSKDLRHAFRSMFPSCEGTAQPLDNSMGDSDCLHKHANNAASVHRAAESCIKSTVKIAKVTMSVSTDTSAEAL
hCB2, sequence (P34972 whole entry): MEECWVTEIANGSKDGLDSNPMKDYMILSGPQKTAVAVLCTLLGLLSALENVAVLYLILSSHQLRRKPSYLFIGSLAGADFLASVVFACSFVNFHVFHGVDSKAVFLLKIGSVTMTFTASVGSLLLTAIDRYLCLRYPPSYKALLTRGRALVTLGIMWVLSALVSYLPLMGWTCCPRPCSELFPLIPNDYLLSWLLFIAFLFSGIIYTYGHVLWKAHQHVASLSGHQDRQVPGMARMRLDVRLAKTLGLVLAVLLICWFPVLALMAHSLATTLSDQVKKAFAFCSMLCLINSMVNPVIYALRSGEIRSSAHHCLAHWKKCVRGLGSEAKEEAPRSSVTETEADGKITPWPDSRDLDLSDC

As for `Cc1cccc2c(Nc3cccc(Cl)c3)ncc(C(=O)N3CCOCC3)c12` [Example-1, (1-((3-Chlorophenyl)amino)-5-methylisoquinolin-4-yl)(morpholino)methanone], the EC50 in assay [1] is above 100 nM; in assay [2] it was below 10 nM.
In turn, `Cc1cccc2c(Nc3cccc(C(F)(F)F)c3)ncc(C(=O)N3CCOCC3)c12` [Example-4, (5-Methyl-1-((3-(trifluoromethyl)phenyl)amino)isoquinolin-4-yl)(morpholino)methanone] registered a 50% effective concentration (EC50) in assay [2] below 10 nM. Moreover, in assay [3] (dose 10 mg/kg), the “% Improvement (MEAN ± S.E.M.) in Paw withdrawal Threshold, 1 h” value (“% Improvement … 1 h” below) is given as 60.9 ± 12 %; the “% Improvement (MEAN ± S.E.M.) in Paw withdrawal Threshold, 2 h” value (“% Improvement … 2 h” for short) is given as 42.9 ± 8.7 %; the “% Improvement (MEAN ± S.E.M.) in Paw withdrawal Threshold, 4 h” value was determined as 43.9 ± 17.4 %.
For `Cc1cccc2c(Nc3cccc(C(F)F)c3)ncc(C(=O)N3CCOCC3)c12` [Example-13, (1-(((3-Difluoromethyl)phenyl)amino)-5-methylisoquinolin-4-yl)(morpholino)methanone], the values for the concentration for a half-maximal effect (EC50) in assay [1] and in assay [2] were below 100 nM and below 10 nM, respectively.
For `Cc1cccc2c(Nc3cccc(Cl)c3)ncc(C(=O)N3CCCCC3)c12` [Example-22, (1-((3-Chlorophenyl)amino)-5-methylisoquinolin-4-yl)(piperidin-1-yl)methanone], in assay [4], the “% Improvement … 1 h” value is listed as 61.8 ± 10.1 % and the “% Improvement … 2 h” value came to 70.2 ± 9.5 %. The 50% effective concentration (EC50) in assay [2] was below 10 nM. In addition, in assay [5], the “% Improvement … 1 h” value stood at 17.7 ± 7.1% and the “% Improvement … 2 h” value is 30.7 ± 8.8 %.
Taken in the same sequence, the figures for `Cc1cccc2c(Nc3cccc(Cl)c3)ncc(C(=O)N3CC4CC(C3)O4)c12` [Example-39, 6-Oxa-3-azabicyclo[3.1.1]heptan-3-yl(1-((3-chlorophenyl)amino)-5-methylisoquinolin-4-yl)methanone] were 11.6 ± 12.8%, 0.7 ± 1.1%, below 10 nM, 2.10 ± 1.87% and 10.22 ± 4.68%.
Taken in the same sequence, the figures for `Cc1cccc2c(Nc3cccc(C(F)(F)F)c3)ncc(C(=O)N3CC4CC(C3)O4)c12` [Example-40, 6-Oxa-3-azabicyclo[3.1.1]heptan-3-yl(5-methyl-1-((3-(trifluoromethyl)phenyl)amino)isoquinolin-4-yl)methanone] were 21.6 ± 10.6%, 11.2 ± 2.9%, below 10 nM, 12.8 ± 4.6% and 13.8 ± 4.5%.
In assay [1], `Cc1cccc2c(Oc3ccc(F)cc3Cl)ncc(C(=O)N3CCOCC3)c12` [Example-56, (1-(2-Chloro-4-fluorophenoxy)-5-methylisoquinolin-4-yl)(morpholino)methanone] displayed an EC50 above 100 nM.
Consider `Cc1cccc2c(Nc3cccc(C(F)(F)F)c3)ccc(C(=O)N3CCOCC3)c12` [Example-134], for which the EC50 in assay [2] is below 10 nM. Further, in assay [3] (dose 10 mg/kg), the “% Improvement … 1 h” value was found to be 6.8 ± 8.8%; the “% Improvement … 2 h” value was 25.8 ± 5.2%; the “% Improvement (MEAN ± S.E.M.) in Paw withdrawal Threshold, 4 h” value is on record as −1.6 ± 8.0%.
The matching figures for `Cc1cccc2c(Nc3cccc(C(F)(F)F)c3)ccc(C(=O)N3CCCCC3)c12` [Example-143]: below 10 nM, 16.7 ± 15.0%, 25.1 ± 17.8% and 18.3 ± 18.5%.
Turning to `Cc1c(Cl)cccc1Nc1ccc(C(=O)N2CCOCC2)c2c(C)cccc12` [Example-155, (4-((3-Chloro-2-methylphenyl)amino)-8-methylnaphthalen-1-yl)(morpholino)methanone], the figures for the EC50 in assay [1] and in assay [2] were below 100 nM and below 10 nM, respectively.
The matching figures for `O=C(c1ccc(Nc2cccc(Cl)c2)c2ccccc12)N1CCOCC1` [Example-179, (4-((3-Chlorophenyl)amino)naphthalen-1-yl)(morpholino)methanone]: above 100 nM and below 10 nM.
As to `O=C(c1ccc(Nc2cccc(F)c2)c2ccccc12)N1CCOCC1` [Example-183, (4-((3-Fluorophenyl)amino)naphthalen-1-yl)(morpholino)methanone], the values for the EC50 in assay [1] and in assay [2] were above 100 nM and 10 to 1000 nM, respectively.
Consider `O=C(c1cnc(Nc2cccc(Cl)c2)c2cccc(Cl)c12)N1CCCCC1` [Example-218, (5-Chloro-1-((3-chlorophenyl)amino)isoquinolin-4-yl)(piperidin-1-yl)methanone], for which, in assay [1], the EC50 is below 100 nM.
Still for that read-out and setting: the figure for `Cc1cccc2c(Nc3cc(F)cc(F)c3)ncc(CN3CCOCC3)c12` [Example-225, N-(3,5-difluorophenyI)-5-methyl-4-(morpholinomethyl)isoquinolin-1-amine] is below 100 nM; for `Cc1cccc2c(Nc3cccc(Cl)c3)ncc(C(=O)N3CCC(F)(F)CC3)c12` [Example-241, (1-((3-Chlorophenyl)amino)-5-methylisoquinolin-4-yl)(4,4-difluoropiperidin-1-yl)methanone] it is below 100 nM.
`Cc1cccc2c(Nc3cccc(C(F)(F)F)c3F)ncc(C(=O)N(C)C)c12` [Example-257, 1-((2-Fluoro-3-(trifluoromethyl)phenyl)amino)-N,N,5-trimethyl isoquinolin-4-carboxamide]: the EC50 in assay [2] (setting [6]) was below 10 nM. In assay [3] (dose 30 mg/kg), the “% Improvement … 1 h” value came to 44.4 ± 23.3% and the “% Improvement … 2 h” value turned out to be 52.8 ± 19.1%.
Consider `CCN(CC)C(=O)c1ccc(Nc2cccc(C(=O)OC)c2C)c2cccc(C)c12` [compound 411, Methyl 2-methyl-3-((5-methyl-4-(diethylcarbamoyl)naphthalen-1-yl)amino)benzoate], for which, in assay [2] (setting [6]), the EC50 was below 10 nM.
As to `CCN(C)C(=O)c1ccc(Nc2cccc(C(F)(F)F)c2F)c2cccc(C)c12` [compound 413, N-Ethyl-4-((2-fluoro-3-(trifluoromethyl)phenyl)amino)-N,8-dimethyl-1-naphthamide], in assay [2], the EC50 was below 10 nM.
Take `Cc1c(Nc2ccc(C(=O)N(C)C)c3c(C)cccc23)cccc1C(F)(F)F` [compound 427, N,N,8-Trimethyl-4-((2-methyl-3-(trifluoromethyl)phenyl)amino)-1-naphthamide]: the EC50 in assay [2] (setting [6]) was below 10 nM.
The same measure, in the same setting: in the case of `CCN(C)C(=O)c1ccc(Nc2cccc(C(F)(F)F)c2C)c2cccc(C)c12` [compound 452, N-Ethyl-N,8-dimethyl-4-((2-methyl-3-(trifluoromethyl)phenyl)amino)-1-naphthamide] it was below 10 nM; in that of `CCN(C)C(=O)c1ccc(Nc2cccc(C)c2C)c2cccc(C)c12` [compound 453, 4-((2,3-Dimethylphenyl)amino)-N-ethyl-N,8-dimethyl-1-naphthamide], below 10 nM.
Still for that read-out and setting: in the case of `CCN(C)C(=O)c1ccc(Nc2cccc(Cl)c2C)c2cccc(C)c12` [compound 456, 4-((3-Chloro-2-methylphenyl)amino)-N-ethyl-N,8-dimethyl-1-naphthamide] it was below 10 nM.

Source of the values: patent publication US9006442B2, “Cannabinoid receptor modulators” (Lupin Limited, priority 2011, dated 2015).
